Data published in publication PMC5218480 (PLoS ONE, 2017).

System: MV-4-11 cells
Experiment: Gene expression microarray analysis (Affymetrix PrimeView) and GSEA
Format: cell-based, human
Set-up: RFU PODN (11730768_x_at) / Fold change /veh PODN (11730768_x_at) / RFU LINC00158 (11744669_a_at) / Fold change /veh LINC00158 (11744669_a_at) / RFU DUSP10 (11751237_a_at) / Fold change /veh DUSP10 (11751237_a_at) / RFU ID3 (11757404_x_at) / Fold change /veh ID3 (11757404_x_at) / RFU PLEKHG5 (11737974_s_at) / Fold change /veh PLEKHG5 (11737974_s_at) / RFU LRRC4B (11730491_at) / Fold change /veh LRRC4B (11730491_at) / RFU GIMAP4 (11747438_a_at) / Fold change /veh GIMAP4 (11747438_a_at) / RFU KRT8 (11758183_x_at) / Fold change /veh KRT8 (11758183_x_at) / RFU CNN1 (11734310_a_at) / Fold change /veh CNN1 (11734310_a_at) / RFU VPS37D (11726825_at) / Fold change /veh VPS37D (11726825_at) / RFU C10orf10 (11716522_x_at) / Fold change /veh C10orf10 (11716522_x_at) / RFU KIR2DL2 /// KIR2DL4 /// KIR2DL5A /// KIR2DL5B /// KIR2DS1 /// KIR2DS2 /// KIR2DS3 /// KIR2DS4 /// KIR3DL3 /// KIR3DL3 /// KIR3DS1 (11738374_at) / Fold change /veh KIR2DL2 /// KIR2DL4 /// KIR2DL5A /// KIR2DL5B /// KIR2DS1 /// KIR2DS2 /// KIR2DS3 /// KIR2DS4 /// KIR3DL3 /// KIR3DL3 /// KIR3DS1 (11738374_at) / RFU C1QL1 (11718748_at) / Fold change /veh C1QL1 (11718748_at) / RFU TMPRSS4 (11747572_a_at) / Fold change /veh TMPRSS4 (11747572_a_at) / RFU HAMP (11756126_x_at) / Fold change /veh HAMP (11756126_x_at) / RFU RNFT2 (11725882_a_at) / Fold change /veh RNFT2 (11725882_a_at) / RFU NR4A2 (11747474_a_at) / Fold change /veh NR4A2 (11747474_a_at) / RFU ABCC12 (11746883_a_at) / Fold change /veh ABCC12 (11746883_a_at) / RFU TMEM136 (11760407_x_at) / Fold change /veh TMEM136 (11760407_x_at) / RFU CLDN22 /// WWC2 (11732394_at) / Fold change /veh CLDN22 /// WWC2 (11732394_at) / RFU HLA-DPB1 (11760878_x_at) / Fold change /veh HLA-DPB1 (11760878_x_at) / RFU SPINT1 (11716480_a_at) / Fold change /veh SPINT1 (11716480_a_at) / RFU GAP43 (11754022_s_at) / Fold change /veh GAP43 (11754022_s_at) / RFU A4GNT (11735810_at) / Fold change /veh A4GNT (11735810_at) / RFU PRB3 (11715151_x_at) / Fold change /veh PRB3 (11715151_x_at) / RFU TUBB4B (11761932_at) / Fold change /veh TUBB4B (11761932_at) / RFU CAPN14 (11732068_a_at) / Fold change /veh CAPN14 (11732068_a_at) / RFU TMCC2 (11721928_a_at) / Fold change /veh TMCC2 (11721928_a_at) / RFU IRGQ (11745062_a_at) / Fold change /veh IRGQ (11745062_a_at) / RFU FAM174B (11720279_a_at) / Fold change /veh FAM174B (11720279_a_at) / RFU TMPRSS4 (11748680_a_at) / Fold change /veh TMPRSS4 (11748680_a_at) / RFU FAM212B (11763350_a_at) / Fold change /veh FAM212B (11763350_a_at) / RFU PLEKHG5 (11743358_a_at) / Fold change /veh PLEKHG5 (11743358_a_at) / RFU ZSCAN30 (11745921_a_at) / Fold change /veh ZSCAN30 (11745921_a_at) / RFU CMKLR1 (11741424_a_at) / Fold change /veh CMKLR1 (11741424_a_at) / RFU LOC101060620 /// MAPK8IP1 (11723275_at) / Fold change /veh LOC101060620 /// MAPK8IP1 (11723275_at) / RFU SPTSSB (11747773_x_at) / Fold change /veh SPTSSB (11747773_x_at) / RFU PRSS12 (11739890_at) / Fold change /veh PRSS12 (11739890_at) / RFU BIN1 (11741810_x_at) / Fold change /veh BIN1 (11741810_x_at) / RFU WNT11 (11732464_a_at) / Fold change /veh WNT11 (11732464_a_at) / RFU C10orf10 (11716521_a_at) / Fold change /veh C10orf10 (11716521_a_at) / RFU C5orf56 (11738089_at) / Fold change /veh C5orf56 (11738089_at) / RFU CYB561 (11721691_x_at) / Fold change /veh CYB561 (11721691_x_at) / RFU ANKRD19P (11752326_a_at) / Fold change /veh ANKRD19P (11752326_a_at) / RFU OR2T12 /// OR2T33 /// OR2T8 (11738714_s_at) / Fold change /veh OR2T12 /// OR2T33 /// OR2T8 (11738714_s_at) / RFU VCAN (11748164_a_at) / Fold change /veh VCAN (11748164_a_at) / RFU JSRP1 (11732532_at) / Fold change /veh JSRP1 (11732532_at) / RFU KRTAP10-11 (11738290_x_at) / Fold change /veh KRTAP10-11 (11738290_x_at) / RFU MYO3A (11730013_a_at) / Fold change /veh MYO3A (11730013_a_at) / RFU EBF3 (11725865_a_at) / Fold change /veh EBF3 (11725865_a_at) / RFU CAMK2N1 (11719241_x_at) / Fold change /veh CAMK2N1 (11719241_x_at) / RFU C5orf56 (11738088_a_at) / Fold change /veh C5orf56 (11738088_a_at) / RFU OLFML3 (11715873_a_at) / Fold change /veh OLFML3 (11715873_a_at) / RFU LOC100653217 /// NTM (11731650_a_at) / Fold change /veh LOC100653217 /// NTM (11731650_a_at) / RFU MAPK11 (11762145_a_at) / Fold change /veh MAPK11 (11762145_a_at) / RFU FIZ1 (11724087_x_at) / Fold change /veh FIZ1 (11724087_x_at) / RFU OASL (11726364_x_at) / Fold change /veh OASL (11726364_x_at) / RFU SOX15 (11748057_x_at) / Fold change /veh SOX15 (11748057_x_at) / RFU CD79A (11719716_a_at) / Fold change /veh CD79A (11719716_a_at) / RFU HIST1H1D (11736915_at) / Fold change /veh HIST1H1D (11736915_at) / RFU CASKIN2 (11723855_a_at) / Fold change /veh CASKIN2 (11723855_a_at) / RFU LOC730098 (11760151_x_at) / Fold change /veh LOC730098 (11760151_x_at) / RFU OR4N2 (11742367_at) / Fold change /veh OR4N2 (11742367_at) / RFU PRRT2 (11749266_a_at) / Fold change /veh PRRT2 (11749266_a_at) / RFU SNX32 (11753110_a_at) / Fold change /veh SNX32 (11753110_a_at) / RFU CDHR5 (11726645_a_at) / Fold change /veh CDHR5 (11726645_a_at) / RFU RCAN1 (11760418_a_at) / Fold change /veh RCAN1 (11760418_a_at) / RFU FAM167A (11723789_a_at) / Fold change /veh FAM167A (11723789_a_at) / RFU FAM26E (11764081_at) / Fold change /veh FAM26E (11764081_at) / RFU ISYNA1 (11749810_s_at) / Fold change /veh ISYNA1 (11749810_s_at) / RFU ACY1 (11761880_at) / Fold change /veh ACY1 (11761880_at) / RFU 11764098_at / Fold change /veh 11764098_at / RFU SAMD14 (11745864_x_at) / Fold change /veh SAMD14 (11745864_x_at) / RFU NPB (11741838_a_at) / Fold change /veh NPB (11741838_a_at) / RFU TMPRSS6 (11731388_a_at) / Fold change /veh TMPRSS6 (11731388_a_at) / RFU KRTAP10-2 (11738614_at) / Fold change /veh KRTAP10-2 (11738614_at) / RFU ARHGAP8 /// PRR5-ARHGAP8 (11727945_x_at) / Fold change /veh ARHGAP8 /// PRR5-ARHGAP8 (11727945_x_at) / RFU KRTAP5-7 /// NADSYN1 (11734609_at) / Fold change /veh KRTAP5-7 /// NADSYN1 (11734609_at) / RFU RASL12 (11751679_a_at) / Fold change /veh RASL12 (11751679_a_at) / RFU CDKN2B (11736163_a_at) / Fold change /veh CDKN2B (11736163_a_at) / RFU PRF1 (11729649_at) / Fold change /veh PRF1 (11729649_at) / RFU, ZNF638 /// ZNF638-IT1 / Fold change vs veh, ZNF638 /// ZNF638-IT1 / RFU, PANK3 / Fold change vs veh, PANK3 / RFU, SH3YL1 / Fold change vs veh, SH3YL1 / RFU, ZEB2 / Fold change vs veh, ZEB2 / RFU, NRIP1 / Fold change vs veh, NRIP1 / RFU, PTTG1IP / Fold change vs veh, PTTG1IP / RFU, CAPN2 / Fold change vs veh, CAPN2 / RFU, MED14 / Fold change vs veh, MED14 / RFU, SNORA58 / Fold change vs veh, SNORA58 / RFU, C1orf63 / Fold change vs veh, C1orf63 / RFU, LRRFIP1 / Fold change vs veh, LRRFIP1 / RFU, NDUFAF7 / Fold change vs veh, NDUFAF7 / RFU, SLC12A2 / Fold change vs veh, SLC12A2 / RFU, IBTK / Fold change vs veh, IBTK / RFU, ESF1 / Fold change vs veh, ESF1 / Fold change vs veh, TMEM50B / RFU, TAOK1 / Fold change vs veh, TAOK1 / RFU, ACBD3 / Fold change vs veh, ACBD3 / RFU, TMA16 / Fold change vs veh, TMA16 / RFU, RWDD3 / Fold change vs veh, RWDD3 / RFU, BCAT1 / Fold change vs veh, BCAT1 / RFU, EDEM3 / Fold change vs veh, EDEM3 / RFU, TMEM33 / Fold change vs veh, TMEM33 / RFU, WDR75 / Fold change vs veh, WDR75 / RFU, AHCTF1 / Fold change vs veh, AHCTF1 / RFU, TFRC / Fold change vs veh, TFRC / RFU, ZDHHC17 / Fold change vs veh, ZDHHC17 / RFU, NOM1 / Fold change vs veh, NOM1 / RFU, ARL8B / Fold change vs veh, ARL8B / RFU, ZBTB11 / Fold change vs veh, ZBTB11 / RFU, TAMM41 / Fold change vs veh, TAMM41 / RFU, KIAA1704 /// LOC100996395 / Fold change vs veh, KIAA1704 /// LOC100996395 / RFU, ING1 / Fold change vs veh, ING1 / RFU, TRMT61B / Fold change vs veh, TRMT61B / RFU, FUBP3 / Fold change vs veh, FUBP3 / RFU, TP53 / Fold change vs veh, TP53 / RFU, TNKS2 / Fold change vs veh, TNKS2 / RFU, ZFP14 / Fold change vs veh, ZFP14 / RFU, ACTR2 / Fold change vs veh, ACTR2 / RFU, PPP3R1 / Fold change vs veh, PPP3R1 / RFU, PIK3R1 / Fold change vs veh, PIK3R1 / RFU, HNRNPA1 / Fold change vs veh, HNRNPA1 / RFU, RNF170 / Fold change vs veh, RNF170 / RFU, ZNF28 / Fold change vs veh, ZNF28 / RFU, RNGTT / Fold change vs veh, RNGTT / RFU, OGT / Fold change vs veh, OGT / RFU, BRD1 / Fold change vs veh, BRD1 / RFU, MARS / Fold change vs veh, MARS / RFU, ZNF655 / Fold change vs veh, ZNF655 / RFU, FAHD1 / Fold change vs veh, FAHD1 / RFU, BDP1 / Fold change vs veh, BDP1 / RFU, LRRCC1 / Fold change vs veh, LRRCC1 / RFU, ARID1A / Fold change vs veh, ARID1A / RFU, ZNF146 / Fold change vs veh, ZNF146 / RFU, ZNF330 / Fold change vs veh, ZNF330 / RFU, GPN3 / Fold change vs veh, GPN3 / RFU, C9orf123 / Fold change vs veh, C9orf123 / RFU, N4BP2L2 / Fold change vs veh, N4BP2L2 / RFU, ARFIP1 / Fold change vs veh, ARFIP1 / RFU, FAM179B / Fold change vs veh, FAM179B / RFU, BCL10 / Fold change vs veh, BCL10 / RFU, UHRF1BP1L / Fold change vs veh, UHRF1BP1L / RFU, BET1 / Fold change vs veh, BET1 / RFU, CNOT2 / Fold change vs veh, CNOT2 / RFU, ZNF268 / Fold change vs veh, ZNF268 / Fold change vs veh, ZNF507 / RFU, DGCR2 / Fold change vs veh, DGCR2 / RFU, WDSUB1 / Fold change vs veh, WDSUB1 / Fold change vs veh, HSP90B1 /// MIR3652 / RFU, ADSS / Fold change vs veh, ADSS / RFU, GK / Fold change vs veh, GK / RFU, ZNF148 / Fold change vs veh, ZNF148 / RFU, TAF9 / Fold change vs veh, TAF9 / RFU, SLC1A5 / Fold change vs veh, SLC1A5 / RFU, SLMO2 / Fold change vs veh, SLMO2 / RFU, ABCC4 / Fold change vs veh, ABCC4 / RFU, LOC101060439 /// RAP1B / Fold change vs veh, LOC101060439 /// RAP1B / RFU, RFX7 / Fold change vs veh, RFX7 / RFU, GTPBP10 / Fold change vs veh, GTPBP10 / RFU, CNEP1R1 / Fold change vs veh, CNEP1R1 / RFU, BIVM-ERCC5 /// ERCC5 / Fold change vs veh, BIVM-ERCC5 /// ERCC5 / RFU, ILF3 / Fold change vs veh, ILF3 / RFU 11762660_at / Fold change /veh 11762660_at / RFU VCAN (11757783_s_at) / Fold change /veh VCAN (11757783_s_at) / RFU DDX43 (11728927_at) / Fold change /veh DDX43 (11728927_at) / RFU KRT8 (11758188_x_at) / Fold change /veh KRT8 (11758188_x_at) / RFU NKD1 (11759106_at) / Fold change /veh NKD1 (11759106_at) / RFU SRD5A1 (11742802_a_at) / Fold change /veh SRD5A1 (11742802_a_at) / RFU TPSAB1 /// TPSB2 (11721975_s_at) / Fold change /veh TPSAB1 /// TPSB2 (11721975_s_at) / RFU GSTM3 (11746129_a_at) / Fold change /veh GSTM3 (11746129_a_at) / RFU IL23R (11737362_x_at) / Fold change /veh IL23R (11737362_x_at) / RFU TMEM51 (11727254_a_at) / Fold change /veh TMEM51 (11727254_a_at) / RFU PIWIL2 (11732686_x_at) / Fold change /veh PIWIL2 (11732686_x_at) / RFU ORM1 (11744905_x_at) / Fold change /veh ORM1 (11744905_x_at) / RFU CCDC152 (11743942_at) / Fold change /veh CCDC152 (11743942_at) / RFU ECM1 (11717891_a_at) / Fold change /veh ECM1 (11717891_a_at) / RFU IL23R (11748794_a_at) / Fold change /veh IL23R (11748794_a_at) / RFU TNFAIP8L3 (11732012_x_at) / Fold change /veh TNFAIP8L3 (11732012_x_at) / RFU MBOAT4 (11741988_at) / Fold change /veh MBOAT4 (11741988_at) / RFU 11764193_at / Fold change /veh 11764193_at / RFU TMEM53 (11763286_at) / Fold change /veh TMEM53 (11763286_at) / RFU MAGEB2 (11727129_at) / Fold change /veh MAGEB2 (11727129_at) / RFU TMEM200A (11744735_a_at) / Fold change /veh TMEM200A (11744735_a_at) / RFU CCDC152 (11751479_a_at) / Fold change /veh CCDC152 (11751479_a_at) / RFU FAM211A (11726209_a_at) / Fold change /veh FAM211A (11726209_a_at) / RFU RGS16 (11746705_a_at) / Fold change /veh RGS16 (11746705_a_at) / RFU VCAN (11755009_s_at) / Fold change /veh VCAN (11755009_s_at) / RFU RHOB (11743442_s_at) / Fold change /veh RHOB (11743442_s_at) / RFU RGS16 (11720943_a_at) / Fold change /veh RGS16 (11720943_a_at) / RFU RGS16 (11720944_at) / Fold change /veh RGS16 (11720944_at) / RFU, VPS4B / Fold change vs veh, VPS4B / RFU, CREB1 / Fold change vs veh, CREB1 / RFU, DNAJC13 / Fold change vs veh, DNAJC13 / RFU, GNAQ / Fold change vs veh, GNAQ / RFU, CDK5R1 / Fold change vs veh, CDK5R1 / RFU, ZRANB3 / Fold change vs veh, ZRANB3 / RFU, CUL4A / Fold change vs veh, CUL4A / RFU, CCNY / Fold change vs veh, CCNY / RFU, UFL1 / Fold change vs veh, UFL1 / RFU, COG3 / Fold change vs veh, COG3 / RFU, DIAPH2 / Fold change vs veh, DIAPH2 / RFU, SKA2 / Fold change vs veh, SKA2 / RFU, AFF3 / Fold change vs veh, AFF3 / RFU, LMF1 / Fold change vs veh, LMF1 / RFU, IPO11 / Fold change vs veh, IPO11 / RFU, DFFB / Fold change vs veh, DFFB / RFU, FOXP1 / Fold change vs veh, FOXP1 / RFU, CARD8 / Fold change vs veh, CARD8 / RFU, STRN3 / Fold change vs veh, STRN3 / RFU, ADK / Fold change vs veh, ADK / RFU, RASSF2 / Fold change vs veh, RASSF2 / RFU, WIPF1 / Fold change vs veh, WIPF1 / RFU, LARP1B / Fold change vs veh, LARP1B / RFU, RASA1 / Fold change vs veh, RASA1 / RFU, RB1 / Fold change vs veh, RB1 / RFU, PPFIA1 / Fold change vs veh, PPFIA1 / RFU, MAT2A / Fold change vs veh, MAT2A / RFU, CCT5 / Fold change vs veh, CCT5 / RFU, WDR92 / Fold change vs veh, WDR92 / RFU, CUX1 / Fold change vs veh, CUX1 / RFU, TTC7A / Fold change vs veh, TTC7A / RFU, TMEM135 / Fold change vs veh, TMEM135 / RFU, DEPTOR / Fold change vs veh, DEPTOR / RFU, CPM / Fold change vs veh, CPM / RFU, DNAJB6 / Fold change vs veh, DNAJB6 / RFU, CACNA2D3 / Fold change vs veh, CACNA2D3 / RFU, DTX4 / Fold change vs veh, DTX4 / RFU, TFCP2 / Fold change vs veh, TFCP2 / RFU, GMCL1 /// GMCL1P1 / Fold change vs veh, GMCL1 /// GMCL1P1 / RFU, AEBP2 / Fold change vs veh, AEBP2 / RFU, SNHG1 /// SNORD22 /// SNORD25 /// SNORD26 /// SNORD27 /// SNORD28 /// SNORD29 /// SNORD31 / Fold change vs veh, SNHG1 /// SNORD22 /// SNORD25 /// SNORD26 /// SNORD27 /// SNORD28 /// SNORD29 /// SNORD31 / Fold change (Aza/veh), C12orf56 (ProbeSet 11735607_a_at) / Fold change (ACY-1035/veh), C12orf56 (ProbeSet 11735607_a_at) / Fold change (Aza/veh), FGFR1OP (ProbeSet 11751329_s_at) / Fold change (ACY-1035/veh), FGFR1OP (ProbeSet 11751329_s_at) / Fold change (Aza/veh), VPS36 (ProbeSet 11739960_a_at) / Fold change (ACY-1035/veh), VPS36 (ProbeSet 11739960_a_at) / RFU SYPL1 (11715823_x_at) / Fold change /veh SYPL1 (11715823_x_at) / RFU IGFBP7 (11715501_s_at) / Fold change /veh IGFBP7 (11715501_s_at) / RFU REEP3 (11722064_at) / Fold change /veh REEP3 (11722064_at) / RFU IGLL1 (11728026_x_at) / Fold change /veh IGLL1 (11728026_x_at): dose or concentration left out as unconfirmed
Conditions: ProbeSet 11720269_a_at; LIST B

Nc1ncn([C@@H]2O[C@H](CO)[C@@H](O)[C@H]2O)c(=O)n1 [azacitidine]
Fold change vs veh, IBTK: 0.94
